From patent US5453444A, “Method to mitigate or eliminate weight loss” (Otsuka Pharmaceutical Co., Ltd., priority 1994, dated 1995) come the findings set out here.

In assay [1] the test system is IL-6 receptor. Description: Radioreceptor assay: binding of 125I-IL-6 to U266 cells. More on the design: species or system human. As for the experimental part: This experiment analyzed whether suramin inhibits IL-6 bioactivity by interfering with binding to the IL-6 receptor. Into eighteen test tubes was placed U266 indicator cells (obtained from ATCC), a binding buffer, made up of RPMI medium, 0.1 mg BSA and […] Hepes, and 100,000 cpm (0.8 ng) of ^125 I-IL-6. The tubes were divided into six groups of three tubes each and received suramin as follows: group 1 had 300 uM suramin; group 2 had 100 uM suramin; group 3 had 30 uM suramin; group 4 had 10 uM suramin; and group 5 had no suramin, but only medium (control for maximal binding). In addition, group 6 received excess unlabeled IL-6 without suramin for use in determining the background of binding in this assay.
After 90 minutes of incubation at 4° C. and the centrifugation of cells on oil (a standard radioreceptor assay) Strassmann, J. Immunol., 147:1279-1289 (1991), the amount of radioactivity bound to the cells was determined. […] Also, the addition of increasing amounts of suramin prevented the binding of radioactive IL-6 to U266 human myeloma indicator cells in vitro as reflected in the results set forth in FIG. 6.
The same procedure set forth in Example 6 was followed, except that Pentosan polysulfate was used instead of Suramin.

Assay [2] concerns IL-6. Put plainly: IL-6 dependent proliferation of B-9 cells (3H-thymidine incorporation). The class given is cell-based. Conditions: for cpm of 3H-thymidine incorporation, B-9 cells: Table 5; for proliferation of B-9 cells in response to IL-6: result in words; for cpm of 3H-thymidine, B-9 cells: Table 3. As for the experimental part: A standard proliferation assay, Strassmann et al., J. Immunol., 147:1279-1285 (1991), was conducted using 96 well plates The medium used was RPMI with 10% fetal calf serum B-9 cells were added and were cultured for 3 days. The extent of proliferation of B-9 cells was determined by the incorporation of radioactive thymidine as described in Strassmann et al., J. Clin. Invest., 89, pp. 1681-84 (May 1992). […] (See Strassmann et al., J. Clin. Invest., 89, pp. 1681-84 (May 1992), incorporated herein by reference.)
The same procedures set forth in Example 5 was followed except that a different sulfate-containing compound, Pentosan polysulfate, was used.
The same procedure set forth in Example 5 was followed except in this example, Dextran sulfate and Dextran, were used instead of Suramin.

Consider “hIL-6: excess unlabeled IL-6 used for determining the background of binding in the radioreceptor assay”, for which the “cpm 125I-IL-6 bound to U266 cells” value in assay [1] (270 ng/ml unlabeled competitor (background of binding)) is reported as 1416 cpm.
Take Dextran: the “cpm of 3H-thymidine incorporation, B-9 cells” value was found to be 24007 cpm in assay [2] (compound 30 μM, IL-6 3 pg/ml); 143003 cpm in assay [2] (compound 30 μM, IL-6 10 pg/ml); 231856 cpm in assay [2] (compound 30 μM, IL-6 30 pg/ml); 29577 cpm in assay [2] (compound 100 μM, IL-6 3 pg/ml); 136191 cpm in assay [2] (compound 100 μM, IL-6 10 pg/ml); 230321 cpm in assay [2] (compound 100 μM, IL-6 30 pg/ml). In addition, the “cpm of 3H-thymidine incorporation, B-9 cells” value is reported as 27015 cpm in assay [2] (compound 300 μM, IL-6 3 pg/ml); 140903 cpm in assay [2] (compound 300 μM, IL-6 10 pg/ml); 245701 cpm in assay [2] (compound 300 μM, IL-6 30 pg/ml). The “proliferation of B-9 cells in response to IL-6” value (from here on “proliferation of B-9 cells”) in assay [2] is recorded as “did not prevent the proliferation of B-9 cells in response to IL-6”.
Pentosan polysulfate: the “cpm of 3H-thymidine, B-9 cells” value in assay [2] (compound 300 μM, IL-6 added 1 pg/ml) came out at 1567 cpm; in assay [2] (compound 300 μM, IL-6 added 3 pg/ml), 2648 cpm; in assay [2] (compound 300 μM, IL-6 added 10 pg/ml), 11456 cpm; in assay [2] (compound 300 μM, IL-6 added 30 pg/ml), 60287 cpm; in assay [2] (compound 1000 μM, IL-6 added 1 pg/ml), 795 cpm; in assay [2] (compound 1000 μM, IL-6 added 3 pg/ml) it was 1062 cpm. The “cpm of 3H-thymidine, B-9 cells” value came to 3586 cpm in assay [2] (compound 1000 μM, IL-6 added 10 pg/ml) and 26727 cpm in assay [2] (compound 1000 μM, IL-6 added 30 pg/ml). In addition, in assay [2], the “proliferation of B-9 cells” value was “prevented the proliferation of B-9 cells”. Also, the “cpm 125I-IL-6 bound to U266 cells” value came to 3000 cpm in assay [1] (3 μM), 2575 cpm in assay [1] (30 μM) and 2003 cpm in assay [1] (300 μM). Besides, the “binding of radioactive IL-6 to U266 cells” value in assay [1] (90 minutes at 4° C., increasing amounts of compound) is “inhibited the binding of radioactive IL-6 to U266 human myeloma cells”.
For the substance Dextran sulfate, the “cpm of 3H-thymidine incorporation, B-9 cells” value was 7603 cpm in assay [2] (compound 30 μM, IL-6 3 pg/ml); 68066 cpm in assay [2] (compound 30 μM, IL-6 10 pg/ml); 204155 cpm in assay [2] (compound 30 μM, IL-6 30 pg/ml); 8075 cpm in assay [2] (compound 100 μM, IL-6 3 pg/ml); 31678 cpm in assay [2] (compound 100 μM, IL-6 10 pg/ml); 150233 cpm in assay [2] (compound 100 μM, IL-6 30 pg/ml). For the same substance, the “cpm of 3H-thymidine incorporation, B-9 cells” value in assay [2] (compound 300 μM, IL-6 3 pg/ml) is 2461 cpm; in assay [2] (compound 300 μM, IL-6 10 pg/ml), 16573 cpm; in assay [2] (compound 300 μM, IL-6 30 pg/ml), 112835 cpm. Besides, in assay [2], the “proliferation of B-9 cells” value is “prevented the proliferation of B-9 cells in response to IL-6”.
